Laboratory results reported in US11672864B2, “Nanostructured gels capable of controlled release of encapsulated agents” (The Brigham and Women's Hospital, Inc., priority 2010, dated 2023).

Experiments:
[1] = Gelation and stability of Abz-derived amphiphiles; type: physicochemical
Description: A variety of Abz-derived amphiphiles were synthesized (Scheme 3-1). […] In general, mixtures of polar organic solvents with water gave the best gelation results, with only two pure organogels forming (Abz-Alloc in glycerol, and Abz-Chol in 1,4-dioxane). […] The four amphiphiles had widely different solubility and gelation properties, with each amphiphile forming at least two gels.
Gelation. To a vial containing solid amphiphile was added the appropriate solvent. The vial was sealed and heated over a heat gun (˜110° C. max) until amphiphile fully dissolved. The vial was allowed to cool undisturbed at room temperature, during which time gel formed. For all characterization gels were allowed to form for at least 45 minutes.

[2] = Gelation of Asc-Pal without and with dexamethasone; type: physicochemical; conditions: 20% ethanol in water
Description: Self-assembly of the amphiphiles is a delicate process that could be affected by additional agents. To understand the affect of dexamethasone, gelation of Asc-Pal has been explored in 20% ethanol in water by varying concentration of Asc-Pal (1-5% wt/v) while keeping concentration of dexamethasone (2 mg) constant. Results in Table 6-2 reveal that presence of dexamethasone facilitates the self-assembly of Asc-Pal and strengthen the gelation.

[3] = Gelation of Asc-Pal in solvents; type: physicochemical
Description: Typically, solvents (0.2 mL) were added to a glass scintillation vial with the gelator (0.5-5 wt/vol %) and sealed with a screw cap. The vial was heated to about 60-80° C. until the gelator was completely dissolved. The vial was placed on a stable surface and allowed to cool to room temperature. Typically after 15-45 min, the solution was transitioned into a viscous gel. Gelation was considered to have occurred when no gravitational flow was observed upon inversion of the glass vial, and resulted hydrogels are injectable. Asc-Pal formed gels in water, benzene, toluene, carbon tetrachloride, and acetonitrile; while a precipitate formed in dimethylformamide and dimethylsulfoxide. Asc-Pal was soluble in chloroform and methanol.

[4] = system: glioma cell line, G55; assay: Cytotoxicity of CPT encapsulated SMS self-assembled fibers, G55; type: cell-based; conditions: G55 cells in culture
Source text: (§1) Cytotoxicity Studies of CPT Encapsulated SMS Self-Assembled Fibers. Prior to in vivo studies, evaluation of efficacy of drug delivery systems using appropriate cell lines is an essential step. Efficacy of CPT loaded SMS self-assembled fibers were investigated using glioma cell line, G55 and control cell line fibroblast, NIH3T3. […] We hypothesize that highly proliferative glioma G55 cells secretes high concentrations of enzymes that degrade the self-assembled fibers to release CPT efficiently, whereas free form of CPT degrades in the media due to its low half-life at physiological conditions. […] Encapsulation of Camptothecin and PARP-Inhibitor (AGO14699).

[5] = system: fibroblasts (NIH3T3); assay: Cytotoxicity of CPT encapsulated SMS self-assembled fibers, NIH3T3; type: cell-based; conditions: Mus musculus; NIH3T3 fibroblasts in culture; unit inferred
Source text: as §1

[6] = Gelation ability and minimum gelation concentration of SMS; type: physicochemical; conditions: for Gelation ability: concentration around 5-9%
Source text: MGC values of SMS have varied from 3 to 8 wt/v %.

C=CCOC(=O)Nc1cccc(C(N)=O)c1 [Abz-Alloc]
Gelation in pure organic solvent ([1]; glycerol): organogels

CC(C)CCC[C@@H](C)[C@H]1CC[C@H]2[C@@H]3CC=C4CC(OC(=O)Nc5cccc(C(N)=O)c5)CC[C@]4(C)[C@H]3CC[C@]12C (stereo partly shown) [Abz-Chol]
Gelation in pure organic solvent ([1]; 1,4-dioxane): organogels

NC(=O)c1cccc(NC(=O)Oc2ccc([N+](=O)[O-])cc2)c1 [Abz-PNP]
Stability of amphiphile [1]: decompose spontaneously

CCCCCCCCCCCCCCCC(=O)OC[C@H](O)[C@H]1OC(=O)C(O)=C1O [Asc-Pal, Ascorbyl palmitate]
Gelation ([2]; 1% Asc-Pal, with dex (2 mg)): Weak
Gelation ([2]; 1% Asc-Pal, without drug): Not gel
Gelation ([2]; 2% Asc-Pal, with dex (2 mg)): Gel
Gelation ([2]; 2% Asc-Pal, without drug): weak
Gelation ([2]; 3% Asc-Pal, with dex (2 mg)): Gel
Gelation ([2]; 3% Asc-Pal, without drug): Gel
Gelation ([2]; 4% Asc-Pal, with dex (2 mg)): Gel
Gelation ([2]; 4% Asc-Pal, without drug): Gel
Gelation ([2]; 5% Asc-Pal, with dex (2 mg)): Gel
Gelation ([2]; 5% Asc-Pal, without drug): Gel
Gelation behaviour ([3]; acetonitrile): gels
Gelation behaviour ([3]; benzene): gels
Gelation behaviour ([3]; carbon tetrachloride): gels
Gelation behaviour ([3]; chloroform): soluble
Gelation behaviour ([3]; dimethylformamide): precipitate
Gelation behaviour ([3]; dimethylsulfoxide): precipitate
Gelation behaviour ([3]; methanol): soluble
Gelation behaviour ([3]; toluene): gels
Gelation behaviour ([3]; water, gelator 0.5-5 wt/vol %): gels

CC[C@@]1(O)C(=O)OCc2c1cc1n(c2=O)Cc2cc3ccccc3nc2-1 [Camptothecin]
IC50 [4]: 0.03 µM
IC50 [5]: 0.0039 µM

CCCCCCCCCCCCCCCCCC(=O)OC[C@@H](O)[C@H]1OC[C@H](O)[C@H]1O [Sorbitane Monostearate, sorbitan monostearate]
Gelation ability ([6]; Acetone): Precipitate
Gelation ability ([6]; Acetonitrile (CH3CN)): Precipitate
Gelation ability ([6]; Chloroform): Soluble
Gelation ability ([6]; Dimethyl formamide (DMF)): Soluble
Minimum Gelation Concentration ([6]; Dimethyl sulfoxide (DMSO)): 3% Wt/V %
Gelation in gelling solvent ([6]; Dimethyl sulfoxide (DMSO) (Table 4-2)): Gel
Gelation ability ([6]; Dimethyl sulfoxide (DMSO)): Gel
Gelation ability ([6]; Dioxane): Soluble
Gelation ability ([6]; Ethanol): Soluble
Gelation ability ([6]; Ethyl acetate): Emulsion
Minimum Gelation Concentration ([6]; Ethylene glycol): 5% Wt/V %
Gelation in gelling solvent ([6]; Ethylene glycol (Table 4-2)): Gel
Gelation in gelling solvent ([6]; Glycerol (Table 4-2)): Gel
Gelation ability ([6]; Glycerol): Gel
Gelation ability ([6]; Isobutanol): Soluble
Gelation ability ([6]; Isopropanol): Soluble
Minimum Gelation Concentration ([6]; Isopropyl palmitate): 3% Wt/V %
Gelation in gelling solvent ([6]; Isopropyl palmitate (Table 4-2)): Gel
Gelation ability ([6]; Isopropyl palmitate): Clear Gel
Gelation ability ([6]; Methanol): Precipitate
Gelation ability ([6]; Mono-ethylene glycol): Weak Gel
Gelation ability ([6]; Polyethylene glycol dimethyl acrylate): Increased
Gelation ability ([6]; Tetrachloro methane): Soluble
Gelation ability ([6]; Tetrahydrofuran (THF)): Soluble
Gelation ability ([6]; Toluene): Soluble
Minimum Gelation Concentration ([6]; Water): 3% Wt/V %
Gelation in gelling solvent ([6]; Water (Table 4-2)): Gel
Gelation ability ([6]; Water): Gel
Gelation ability ([6]; Xylene): Soluble
Minimum gelation concentrations (MGC) ([6]; across different solvents): 3 to 8 wt/v %
Minimum Gelation Concentration ([6]; glycerol): 8% Wt/V %
Minimum Gelation Concentration ([6]; n-hexadecane): 2% Wt/V %
Gelation in gelling solvent ([6]; n-hexadecane (Table 4-2)): Gel
Gelation ability ([6]; n-hexadecane): Gel
Minimum Gelation Concentration ([6]; n-hexane): 4% Wt/V %
Gelation in gelling solvent ([6]; n-hexane (Table 4-2)): Gel
Gelation ability ([6]; n-hexane): Gel
